pEC50: −log10 of the molar value. Converted amounts (≈) assume the structure as drawn. Read-outs that look alike come from different tables or passages of the source.
How the values were obtained:
[1] = in vitro
[2] = test system: CHIKV; assay: microbe, parasite or virus in culture; conditions: Chikungunya virus
[3] = test system: Vero; assay: Cell viability, Vero (MERV screen); assay type: cell-based
[4] = test system: MERV; assay: MERV (MOI 0.4) viral inhibition in Vero; assay type: cell-based; conditions: MERV MOI 0.4, Vero; for inhibition at 10 µM: read-out: Viral Inh. 10 uM; for inhibition at 50 µM: read-out: Viral Inh. 50 uM
[5] = in vitro; conditions: African green monkey
[6] = test system: SARS Coronavirus Urbani; assay: microbe, parasite or virus in culture; assay type: cell-based; conditions: Severe acute respiratory syndrome-related coronavirus, Vero 76
[7] = test system: Astrocytes
[8] = test system: VEEV; assay: microbe, parasite or virus in culture; assay type: cell-based; conditions: Venezuelan equine encephalitis virus, Astrocyte; for inhibition at 10 µM: read-out: Viral Inh. 10 uM; for inhibition at 50 µM: read-out: Viral Inh. 50 uM
[9] = test system: VEEV; assay: microbe, parasite or virus in culture; assay type: cell-based; conditions: Venezuelan equine encephalitis virus, HeLa; for inhibition at 10 µM: read-out: Viral Inh. 10 uM; for inhibition at 50 µM: read-out: Viral Inh. 50 uM
[10] = test system: HeLa; conditions: human
[11] = test system: Chikungunya virus; assay: Chikungunya virus (MOI 0.5) viral inhibition in U2OS cell line; assay type: cell-based
[12] = test system: U2OS cell line; assay: Cell viability, U2OS cell line (Chikungunya screen)

CCCCCCCCCCCCCCCCNC(=O)ONc1ccn([C@@H]2O[C@H](CO)[C@H](O)C2O)c(=O)n1 (stereo partly drawn) [EIDD-02356-01]
CC50 [1]: 211 µM
pEC50 [2]: < 4.11

C[C@@]1(O)C2OP(=O)(Oc3ccccc3)OC[C@H]2O[C@H]1n1ccc(=O)[nH]c1=O (stereo partly drawn) [EIDD-01872-01]
CC50 [1]: > 500 µM
pEC50 [2]: < 4.11

CCCCCCCOC(=O)ONc1ccn([C@@H]2O[C@H](CO)C(O)C2O)c(=O)n1 (stereo partly drawn) [drawing 89]
Cell Viability 10 uM [3]: 84% ± 8% (n = 4)
Cell Viability 50 uM [3]: 58% ± 2% (n = 4)
inhibition at 10 µM [4]: 99%
inhibition at 50 µM [4]: 99%

CONc1ccn([C@@H]2O[C@H](CO)C(O)C2O)c(=O)n1 (stereo partly drawn)
CC50 [5]: > 100 µg/mL
EC50 [6]: > 100 µg/mL

O=c1nc(NO)ccn1[C@@H]1O[C@H](COP2(=O)OCc3ccccc3O2)C(O)[C@@H]1O (stereo partly drawn) [EIDD-02207-01]
CC50 [1]: > 500 µM
pEC50 [2]: 4.97

O=c1nc(NO)ccn1[C@@H]1O[C@H](CO)[C@H](O)C1F (stereo partly drawn) [EIDD-02085-01]
CC50 [1]: > 500 µM
pEC50 [2]: < 4.12

CC(C)(C)C(=O)OCOP(=O)(OCOC(=O)C(C)(C)C)OC[C@@]1(N=[N+]=[N-])O[C@@H](n2ccc(=O)[nH]c2=O)[C@@H](O)C1O (stereo partly drawn) [EIDD-02110-03]
CC50 [1]: 387 µM
pEC50 [2]: 4.25

CC(C)OC(=O)[C@H](C)NP(=O)(OC[C@H]1O[C@@H](n2ccc(NO)nc2=O)C(O)C1O)Oc1ccccc1 (stereo partly drawn) [drawing 85]
Cell Viability 10 uM [7]: 102% ± 16% (n = 3)
Cell Viability 50 uM [7]: 100% ± 17% (n = 3)
inhibition at 10 µM [8]: 49%
inhibition at 50 µM [8]: 96%

[2H]C([2H])(O)[C@H]1O[C@@H](n2ccc(NO)nc2=O)[C@@H](O)C1O (stereo partly drawn) [EIDD-02345-01]
CC50 [1]: > 500 µM
pEC50 [2]: 5.82

CNC(=O)ONc1ccn([C@@H]2O[C@H](CO)C(O)[C@@H]2O)c(=O)n1 (stereo partly drawn) [EIDD-02422-01]
CC50 [1]: > 500 µM
pEC50 [2]: 4.49

O=c1nc(NO)ccn1[C@@H]1O[C@H](CO)C(O)C1O (stereo partly drawn) [drawing 83]
Cell Viability 10 uM [7]: 98% ± 12% (n = 3)
Cell Viability 50 uM [7]: 86% ± 5% (n = 3)
inhibition at 10 µM [8]: 99%
inhibition at 50 µM [8]: 100%

CCCCCCCOC(=O)ONc1ccn([C@@H]2O[C@H](CO)C(O)C2O)c(=O)n1 (stereo partly drawn) [drawing 84]
Cell Viability 10 uM [7]: 99% ± 9% (n = 3)
Cell Viability 50 uM [7]: 94% ± 10% (n = 3)
inhibition at 10 µM [8]: 94%
inhibition at 50 µM [8]: 100%

C#C[C@@]1(O)C(O)[C@@H](COP(=O)(OCOC(=O)C(C)(C)C)OCOC(=O)C(C)(C)C)O[C@H]1n1ccc(=O)[nH]c1=O (stereo partly drawn) [EIDD-02290-01]
CC50 [1]: 274 µM
pEC50 [2]: 4.19

CCOP(=O)(OCC)OC[C@H]1O[C@@H](n2ccc(NO)nc2=O)[C@@H](O)C1O (stereo partly drawn) [EIDD-02503-01]
CC50 [1]: > 500 µM
pEC50 [2]: < 4.11

CCCCCCCCC(=O)ONc1ccn([C@@H]2O[C@H](CO)C(O)C2O)c(=O)n1 (stereo partly drawn)
CC50 [5]: 36 µg/mL (≈ 90.1 µM)
EC50 [6]: 0.19 µg/mL (≈ 0.476 µM)

CCCCCCCCCCCCCCCCCCNC(=O)ONc1ccn([C@@H]2O[C@H](CO)[C@H](O)C2O)c(=O)n1 (stereo partly drawn) [EIDD-02357-01]
CC50 [1]: 90 µM
pEC50 [2]: < 4.11

O=c1nc(NO)c(F)cn1[C@@H]1O[C@H](CO)C(O)C1O (stereo partly drawn) [drawing 81]
inhibition at 10 µM [9]: 61%
inhibition at 50 µM [9]: 98%
Cell Viability 10 uM [10]: 55% ± 4% (n = 4)
Cell Viability 50 uM [10]: 36% ± 2% (n = 4)

CCCCCCCCC(=O)OC[C@H]1O[C@@H](n2ccc(NO)nc2=O)C(O)[C@H]1O (stereo partly drawn) [EIDD-02476-01]
CC50 [1]: 154 µM
pEC50 [2]: 6.52

CCCCCCCNC(=O)ONc1ccn([C@@H]2O[C@H](CO)C(O)C2O)c(=O)n1 (stereo partly drawn) [drawing 82]
pEC50 [9]: 5.22
inhibition at 10 µM [9]: 93%
inhibition at 50 µM [9]: 100%
Cell Viability 10 uM [10]: 151% ± 16% (n = 4)
Cell Viability 50 uM [10]: 126% ± 7% (n = 4)

O=c1ccn([C@@H]2O[C@H](CO)C(O)[C@@]23CC3(F)F)c(=O)[nH]1 (stereo partly drawn) [EIDD-02340-01]
CC50 [1]: > 500 µM
pEC50 [2]: < 4.11

CCCCCCCNC(=O)ONc1ccn([C@@H]2O[C@H](CO)C(O)C2O)c(=O)n1 (stereo partly drawn) [drawing 92]
Cell Viability 10 uM [3]: 118% ± 15% (n = 4)
Cell Viability 50 uM [3]: 91% ± 39% (n = 4)
inhibition at 10 µM [4]: 86%
inhibition at 50 µM [4]: 98%

CCCCCCCNC(=O)OC[C@H]1O[C@@H](n2ccc(NO)nc2=O)C(O)[C@H]1O (stereo partly drawn) [EIDD-02475-01]
CC50 [1]: > 500 µM
pEC50 [2]: < 4.11

CCCCCCCNC(=O)ONc1ccn([C@@H]2O[C@H](CO)C(O)C2O)c(=O)n1 (stereo partly drawn) [drawing 77]
inhibition at 10 µM ([11]; read-out: Viral Inh. 10 uM): 14%
inhibition at 50 µM ([11]; read-out: Viral Inh. 50 uM): 70%
Cell Viability 10 uM ([12]; 10 uM): 105% ± 2% (n = 4)
Cell Viability 50 uM ([12]; 50 uM): 96% ± 11% (n = 4)

Source: patent US11628181B2, “N4-hydroxycytidine and derivatives and anti-viral uses related thereto” (Emory University, priority 2014, dated 2023)
